Measurements reported in patent US20230203043A1, “NOVEL IMIDAZOPYRAZINE DERIVATIVES” (Hoffmann-La Roche Inc., priority 2020, published 2023).
Where a name gives a salt, the structure may show the parent alone.

system: Acinetobacter baumannii ATCC17961; assay: Antimicrobial susceptibility testing: 90% growth inhibitory concentration (IC90) determination in Iso-Sensitest broth, OD600 growth; assay type: cell-based; details: Acinetobacter baumannii, ATCC17961, 16 h, read-out: A. baumannii ATCC 17961 IC90 (uM), strain ATCC 17961, OD600 growth over 16 h
Procedure: Antimicrobial Susceptibility Testing:
90% Growth Inhibitory Concentration (IC90) Determination
The in vitro antimicrobial activity of the compounds was determined according to the following procedure:
The assay used a 10-points Iso-Sensitest broth medium to measure quantitatively the in vitro activity of the compounds against Acinetobacter baumannii ATCC17961 or ATCC17968.
Stock compounds in DMSO were serially twofold diluted (e.g. range from 50 to 0.097 μM final concentration) in 384 wells microtiter plates and inoculated with 49 μl the bacterial suspension in Iso-Sensitest medium to have a final cell concentration of ˜5×10^(5) CFU/ml in a final volume/well of 50 ul/well. Microtiter plates were incubated at 35±2° C.
Bacterial cell growth was determined with the measurement of optical density at λ=600 nm each 20 minutes over a time course of 16 h. Growth inhibition was calculated during the logarithmic growth of the bacterial cells with determination of the concentration inhibiting 50% (IC50) and 90% (IC90) of the growth.
Table 7 provides the 90% growth inhibitory concentrations (IC90) in micromoles per liter of the compounds of present invention obtained against the strain Acinetobacter baumannii ATCC17961 and/or ATCC17968.

First: CCc1cc(Nc2nccn3c(-c4cn(CC)nc4C(F)(F)F)cnc23)ccc1C(=O)NCCOCCN [Example 31, N-[2-(2-aminoethoxy)ethyl]-2-ethyl-4-[[3-[1-ethyl-3-(trifluoromethyl)pyrazol-4-yl]imidazo[1,2-a]pyrazin-8-yl]amino]benzamide formate]
Second: CCc1cc(Nc2nccn3c(-c4cn(CCC#N)nc4C(F)(F)F)cnc23)ccc1C(=O)NCCOCCN [Example 33, N-[2-(2-aminoethoxy)ethyl]-4-[[3-[1-(2-cyanoethyl)-3-(trifluoromethyl)pyrazol-4-yl]imidazo[1,2-a]pyrazin-8-yl]amino]-2-ethylbenzamide formate]
The IC90 of the first is 1.5-fold lower: 0.175 µM for the first, 0.269 µM for the second.

Going from `CCc1cc(Nc2nccn3c(-c4cn(CC#N)nc4C(F)(F)F)cnc23)ccc1C(=O)NCCCNC(=O)[C@H](C)N` [Example 794, (S)-N-(3-(2-aminopropanamido)propyl)-4-((3-(1-(cyanomethyl)-3-(trifluoromethyl)-1H-pyrazol-4-yl)imidazo[1,2-a]pyrazin-8-yl)amino)-2-ethylbenzamide formate] to `CCc1cc(Nc2nccn3c(-c4cn(CC#N)nc4C(F)(F)F)cnc23)ccc1C(=O)NCC(=O)N1CC2(CC(N)C2)C1` [Example 508, N-[2-(6-amino-2-azaspiro[3.3]heptan-2-yl)-2-oxo-ethyl]-4-[[3-[1-(cyanomethyl)-3-(trifluoromethyl)pyrazol-4-yl]imidazo[1,2-a]pyrazin-8-yl]amino]-2-ethyl-benzamide formate], the IC90 falls from 2.2 µM to 0.198 µM (11-fold).

`O=C(NCC1CNC1)N1CCN(C(=O)c2ccc(Nc3nccn4c(-c5c[nH]nc5C(F)(F)F)cnc34)cc2Cl)CC1` [Example 393, N-(azetidin-3-ylmethyl)-4-[2-chloro-4-[[3-[3-(trifluoromethyl)-1H-pyrazol-4-yl]imidazo[1,2-a]pyrazin-8-yl]amino]benzoyl]piperazine-1-carboxamide formate] and `O=C(c1ccc(Nc2nccn3c(-c4c[nH]nc4C(F)(F)F)cnc23)cc1Cl)N1CCN(C(=O)C2CCNCC2)CC1` [Example 401, [2-chloro-4-[[3-[3-(trifluoromethyl)-1H-pyrazol-4-yl]imidazo[1,2-a]pyrazin-8-yl]amino]phenyl]-[4-(piperidine-4-carbonyl)piperazin-1-yl]methanone formate] are within 1.5-fold of each other in IC90: 0.239 µM for the first, 0.273 µM for the second.

First: CCc1cc(Nc2nccn3c(-c4cn(CC(F)F)nc4C(F)(F)F)cnc23)ccc1C(=O)NCC1CNC1 [Example 557, N-(azetidin-3-ylmethyl)-4-((3-(1-(2,2-difluoroethyl)-3-(trifluoromethyl)-1H-pyrazol-4-yl)imidazo[1,2-a]pyrazin-8-yl)amino)-2-ethylbenzamide formate]
Second: CCc1cc(Nc2nccn3c(-c4cn(CC(F)F)nc4C(F)(F)F)cnc23)ccc1C(=O)NCC(=O)NCC1CNC1 [Example 547, N-[2-(azetidin-3-ylmethylamino)-2-oxo-ethyl]-4-[[3-[1-(2,2-difluoroethyl)-3-(trifluoromethyl)pyrazol-4-yl]imidazo[1,2-a]pyrazin-8-yl]amino]-2-ethyl-benzamide formate]
The IC90 of the first is 2.1-fold lower: 0.144 µM for the first, 0.298 µM for the second.

Work on `COCCn1cc(-c2cnc3c(Nc4ccc(C(=O)N5CCN(C(=O)CCN)CC5)c(Cl)c4)nccn23)c(C(F)(F)F)n1` [Example 294, 3-amino-1-[4-[2-chloro-4-[[3-[1-(2-methoxyethyl)-3-(trifluoromethyl)pyrazol-4-yl]imidazo[1,2-a]pyrazin-8-yl]amino]benzoyl]piperazin-1-yl]propan-1-one formate] yielded an IC90 of 0.457 µM.

same assay, conditions: Acinetobacter baumannii, ATCC17961, 16 h, strain ATCC 17961, OD600 growth over 16 h, read-out: A. baumannii ATCC 17961 IC90

Compared with `O=C(c1ccc(Nc2nccn3c(-c4c[nH]nc4C(F)(F)F)cnc23)cc1Cl)N1CCN(C(=O)[C@@]2(O)CCCNC2)CC1` [Example 248, [2-chloro-4-[[3-[3-(trifluoromethyl)-1H-pyrazol-4-yl]imidazo[1,2-a]pyrazin-8-yl]amino]phenyl]-[4-[(3R)-3-hydroxypiperidine-3-carbonyl]piperazin-1-yl]methanone], `Cc1cc(Nc2nccn3c(-c4c[nH]nc4C(F)(F)F)cnc23)ccc1C(=O)N1CCN(C(=O)C2(O)CCCNC2)CC1` (stereo not drawn) [Example 436, [4-(3-hydroxypiperidine-3-carbonyl)piperazin-1-yl]-[2-methyl-4-[[3-[3-(trifluoromethyl)-1H-pyrazol-4-yl]imidazo[1,2-a]pyrazin-8-yl]amino]phenyl]methanone hydrochloride] is 1.7-fold higher in IC90: 0.311 µM for the first, 0.536 µM for the second.

First: Cc1cc(Nc2nccn3c(-c4cn(CC(F)F)nc4C(F)(F)F)cnc23)cc(F)c1C(=O)N1CCN(C(=O)[C@H]2[C@@H]3CNC[C@@H]32)CC1 [Example 692, (4-((1R,5S,6r)-3-azabicyclo[3.1.0]hexane-6-carbonyl)piperazin-1-yl)(4-((3-(1-(2,2-difluoroethyl)-3-(trifluoromethyl)-1H-pyrazol-4-yl)imidazo[1,2-a]pyrazin-8-yl)amino)-2-fluoro-6-methylphenyl)methanone]
Second: C#CCNC(=O)c1c(C)cc(Nc2nccn3c(-c4cn(CC#N)nc4C(F)(F)F)cnc23)cc1F [Example 4, 4-[[3-[1-(cyanomethyl)-3-(trifluoromethyl)pyrazol-4-yl]imidazo[1,2-a]pyrazin-8-yl]amino]-2-fluoro-6-methyl-N-prop-2-ynylbenzamide]
The IC90 of the first is 2.7-fold higher: 0.356 µM for the first, 0.132 µM for the second.

`CCc1cc(Nc2nccn3c(-c4cn(CC(F)F)nc4C(F)(F)F)cnc23)ccc1C(=O)NCCCNC(=O)[C@H]1C[C@H](N)C1` [Example 542, N-(3-((1r,3r)-3-aminocyclobutane-1-carboxamido)propyl)-4-((3-(1-(2,2-difluoroethyl)-3-(trifluoromethyl)-1H-pyrazol-4-yl)imidazo[1,2-a]pyrazin-8-yl)amino)-2-ethylbenzamide formate] and `C#CCn1cc(-c2cnc3c(Nc4ccc(C(=O)NCCOCCN)c(CC)c4)nccn23)c(C(F)F)n1` [Example 123, N-[2-(2-aminoethoxy)ethyl]-4-[[3-[3-(difluoromethyl)-1-prop-2-ynylpyrazol-4-yl]imidazo[1,2-a]pyrazin-8-yl]amino]-2-ethylbenzamide] are within 1.5-fold of each other in IC90: 0.196 µM for the first, 0.209 µM for the second.

`C#CC(C)n1cc(-c2cnc3c(Nc4ccc(C(=O)N5CCN(C(=O)C(C)N)CC5)c(CC)c4)nccn23)c(C(F)F)n1` (stereo in doubt) [Example 784, (2R)-2-amino-1-(4-(4-((3-(1-(but-3-yn-2-yl)-3-(difluoromethyl)-1H-pyrazol-4-yl)imidazo [1,2-a]pyrazin-8-yl)amino)-2-ethylbenzoyl)piperazin-1-yl)propan-1-one (mixture of epimers)] and `CCc1cc(Nc2nccn3c(-c4cn(COC)nc4C(F)F)cnc23)ccc1C(=O)N1CCN(C(=O)[C@@H](C)N)CC1` [Example 778, (R)-2-amino-1-(4-(4-((3-(3-(difluoromethyl)-1-(methoxymethyl)-1H-pyrazol-4-yl)imidazo[1,2-a]pyrazin-8-yl)amino)-2-ethylbenzoyl)piperazin-1-yl)propan-1-one] are within 1.5-fold of each other in IC90: 1.24 µM for the first, 1.03 µM for the second.

`Cc1cc(Nc2nccn3c(-c4c[nH]nc4C(F)(F)F)cnc23)cc(F)c1C(=O)NCCCCCN` [Example 81, N-(5-aminopentyl)-2-fluoro-6-methyl-4-[[3-[3-(trifluoromethyl)-1H-pyrazol-4-yl]imidazo[1,2-a]pyrazin-8-yl]amino]benzamide] was tested, and the IC90 was 1.06 µM.
